The assay relates to MGE progenitor cells. In words: HD-DoE 12-factor experiment for stage 4 recipe, optimized for MEF2C. It is filed as cell-based, human. An excerpt: These effectors are small molecules or proteins. They are commonly used during stepwise differentiation of stem cells to specific fates. The choice of the effectors was based on current literature on neural induction in forebrain region of developing brain and differentiation of stem cells to neural progenitors.
To evaluate the effectors, experiments with at least 8 factors were designed that can assess the response of cells to 48 or more different combinations of effectors in a range of concentrations. To analyze the models, we focused on expression of genes involved in development and patterning of the forebrain interneurons maturation including LHX6 (Yuan et al. (2018) Elife, 7:e37382), DLX5 (Wang et al. (2010) J. Neuroscience 30:5334-5345), ASCL1 (Shi et al. (2016) J. Biol. Chem. 291:13560-13570). At later stages we focused on interneuron maturation genes including Parvalbumin and absence of somatostatin (Horn and Nicoll (2018) Proc. Natl. Acad. Sci. 115:589-594). The impacts of each effector on gene expression level are defined by a parameter called factor contribution that is calculated for each effector during the modeling.
To identify the recipe of stage 4 of differentiation, 48 different combinations of effectors generated using Design-of-Experiments compression through D-optimality were robotically prepared. The effector combinations were prepared in a basal media and were subsequently added to the cells, which were then allowed to differentiate. Three days later RNA extraction was performed, and gene expression was obtained using quantitative PCR analysis. The data was normalized and modeled using partial least squares regression analysis to the effector design, resulting in the generation of gene-specific models, which after model tuning for maximal predictive power, provided explanation of the effectors ability to control the expression of individual genes, combinatorically, and individually. Solutions within the tested space could then be explored to address desirability. […] Valproic Acid can inhibit histone deaceylases and increase γ-aminobutyric acid (GABA). […] GDNF is the […] Glial cell line-derived neurotrophic factor and can activate the GDNF pathway.
To find the set of factors that have the potential to optimize MEF2C in this experiment, a new assessment was done through dynamic profile analysis with focus on maximal expression of MEF2C (FIG. 20).

Consider 1 compound from US20230332103A1, “Methods and Compositions for Generating Human Forebrain Neural Progenitor Cells and for Maturation Thereof to Parvalbumin+ Interneurons” (Trailhead Biosystems Inc., priority 2021, published 2023).

Regarding `c1ccc2c(-c3cnn4cc(-c5ccc(N6CCNCC6)cc5)cnc34)ccnc2c1` [LDN193189], under “dynamic profile analysis, FIG. 20”, the “impact on expression of MEF2C” value is recorded as “negative effect”. In addition, the “factor contribution on expression of MEF2C” value (significant negative effect, model optimized for maximal expression of MEF2C) worked out at 11.
